In ChEMBL document CHEMBL1909046, “DrugMatrix in vitro pharmacology data”:

What was measured:
Leukotriene C4 synthase = target: T1, Leukotriene C4 synthase (Cavia porcellus, UniProt A6XA80); type: tissue-based, Lung;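 note: enzyme inhibition assay of leukotriene C4 synthase, using LTA4 as the substrate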
T1 sequence (A6XA80 whole entry): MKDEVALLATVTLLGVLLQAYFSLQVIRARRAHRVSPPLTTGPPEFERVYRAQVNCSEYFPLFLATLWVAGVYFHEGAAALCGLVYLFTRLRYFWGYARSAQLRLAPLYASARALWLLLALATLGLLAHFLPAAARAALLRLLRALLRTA

Glucocorticoid receptor = target: T2, Glucocorticoid receptor (Homo sapiens, UniProt P04150); conditions: hela s3
T2 sequence (P04150 whole entry): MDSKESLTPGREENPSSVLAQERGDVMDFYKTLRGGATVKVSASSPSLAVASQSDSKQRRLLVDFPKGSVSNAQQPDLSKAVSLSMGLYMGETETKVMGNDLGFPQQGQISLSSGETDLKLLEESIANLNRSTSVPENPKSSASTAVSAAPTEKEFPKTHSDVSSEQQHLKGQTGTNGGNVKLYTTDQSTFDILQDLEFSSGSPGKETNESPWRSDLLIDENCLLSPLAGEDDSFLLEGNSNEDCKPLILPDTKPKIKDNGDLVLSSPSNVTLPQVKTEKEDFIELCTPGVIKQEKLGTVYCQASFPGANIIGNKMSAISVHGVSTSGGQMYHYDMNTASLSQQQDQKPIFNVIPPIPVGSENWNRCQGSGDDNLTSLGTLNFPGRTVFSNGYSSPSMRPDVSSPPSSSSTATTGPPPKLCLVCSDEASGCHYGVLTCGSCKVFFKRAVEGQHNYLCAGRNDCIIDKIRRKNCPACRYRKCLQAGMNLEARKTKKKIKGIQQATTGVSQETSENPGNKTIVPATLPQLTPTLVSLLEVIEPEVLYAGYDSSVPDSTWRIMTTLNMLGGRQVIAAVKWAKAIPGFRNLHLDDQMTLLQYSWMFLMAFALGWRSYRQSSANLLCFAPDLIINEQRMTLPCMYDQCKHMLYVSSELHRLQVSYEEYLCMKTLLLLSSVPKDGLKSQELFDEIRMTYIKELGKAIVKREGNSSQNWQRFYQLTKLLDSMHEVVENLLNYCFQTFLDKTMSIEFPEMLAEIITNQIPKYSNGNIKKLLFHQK

[1] = target: Voltage-gated inwardly rectifying potassium channel KCNH2 (Homo sapiens, UniProt Q12809); conditions: hek293
Sequence of Voltage-gated inwardly rectifying potassium channel KCNH2 (Q12809 whole entry): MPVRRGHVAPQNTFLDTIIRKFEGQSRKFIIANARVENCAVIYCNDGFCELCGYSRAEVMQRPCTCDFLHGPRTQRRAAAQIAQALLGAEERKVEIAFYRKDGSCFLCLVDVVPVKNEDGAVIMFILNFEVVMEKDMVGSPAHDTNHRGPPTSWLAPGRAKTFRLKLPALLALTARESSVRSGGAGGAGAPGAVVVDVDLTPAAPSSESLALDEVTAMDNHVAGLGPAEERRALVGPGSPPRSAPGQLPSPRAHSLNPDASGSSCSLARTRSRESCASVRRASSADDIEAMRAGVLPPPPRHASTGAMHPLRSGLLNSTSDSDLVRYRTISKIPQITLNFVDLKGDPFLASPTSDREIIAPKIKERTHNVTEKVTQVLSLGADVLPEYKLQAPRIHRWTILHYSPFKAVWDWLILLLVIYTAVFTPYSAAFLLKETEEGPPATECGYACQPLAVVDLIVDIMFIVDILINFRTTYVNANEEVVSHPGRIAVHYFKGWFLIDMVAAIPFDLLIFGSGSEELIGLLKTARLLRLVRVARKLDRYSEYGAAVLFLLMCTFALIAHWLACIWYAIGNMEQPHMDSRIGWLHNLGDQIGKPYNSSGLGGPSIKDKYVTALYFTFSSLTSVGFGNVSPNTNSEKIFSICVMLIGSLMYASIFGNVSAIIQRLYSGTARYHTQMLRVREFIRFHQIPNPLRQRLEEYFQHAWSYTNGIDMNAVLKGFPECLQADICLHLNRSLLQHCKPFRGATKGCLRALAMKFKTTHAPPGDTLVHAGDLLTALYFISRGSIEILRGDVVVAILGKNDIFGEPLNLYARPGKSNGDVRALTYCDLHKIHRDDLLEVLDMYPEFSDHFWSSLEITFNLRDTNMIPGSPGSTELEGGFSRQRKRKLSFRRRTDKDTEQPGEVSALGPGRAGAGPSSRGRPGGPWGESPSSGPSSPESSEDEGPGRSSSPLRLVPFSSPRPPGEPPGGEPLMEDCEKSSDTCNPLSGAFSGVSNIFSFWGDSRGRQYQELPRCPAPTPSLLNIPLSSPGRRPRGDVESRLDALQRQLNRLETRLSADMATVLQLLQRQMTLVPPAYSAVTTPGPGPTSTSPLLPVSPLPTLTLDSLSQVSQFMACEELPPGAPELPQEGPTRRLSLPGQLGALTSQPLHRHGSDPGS

Neutrophil elastase = target: T3, Neutrophil elastase (Homo sapiens, UniProt P08246); type: tissue-based;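 note: inhibition of neutrophil elastase enzyme activity, measured with a p-nitroanilide-linked peptide substrate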
T3 sequence (P08246 whole entry): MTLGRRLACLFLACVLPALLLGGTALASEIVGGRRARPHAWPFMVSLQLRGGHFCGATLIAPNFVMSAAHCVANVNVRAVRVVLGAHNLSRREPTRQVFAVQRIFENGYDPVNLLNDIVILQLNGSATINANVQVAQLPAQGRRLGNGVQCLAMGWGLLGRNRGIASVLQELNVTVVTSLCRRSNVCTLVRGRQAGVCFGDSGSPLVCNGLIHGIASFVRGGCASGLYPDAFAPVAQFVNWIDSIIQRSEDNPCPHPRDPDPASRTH

[2] = target: T4, Nitric oxide synthase, inducible (Mus musculus, UniProt P29477); parameters: species or system Escherichia coli;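 note: inhibition of iNOS enzyme activity measured with L-arginine as substrate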
T4 sequence (P29477 whole entry): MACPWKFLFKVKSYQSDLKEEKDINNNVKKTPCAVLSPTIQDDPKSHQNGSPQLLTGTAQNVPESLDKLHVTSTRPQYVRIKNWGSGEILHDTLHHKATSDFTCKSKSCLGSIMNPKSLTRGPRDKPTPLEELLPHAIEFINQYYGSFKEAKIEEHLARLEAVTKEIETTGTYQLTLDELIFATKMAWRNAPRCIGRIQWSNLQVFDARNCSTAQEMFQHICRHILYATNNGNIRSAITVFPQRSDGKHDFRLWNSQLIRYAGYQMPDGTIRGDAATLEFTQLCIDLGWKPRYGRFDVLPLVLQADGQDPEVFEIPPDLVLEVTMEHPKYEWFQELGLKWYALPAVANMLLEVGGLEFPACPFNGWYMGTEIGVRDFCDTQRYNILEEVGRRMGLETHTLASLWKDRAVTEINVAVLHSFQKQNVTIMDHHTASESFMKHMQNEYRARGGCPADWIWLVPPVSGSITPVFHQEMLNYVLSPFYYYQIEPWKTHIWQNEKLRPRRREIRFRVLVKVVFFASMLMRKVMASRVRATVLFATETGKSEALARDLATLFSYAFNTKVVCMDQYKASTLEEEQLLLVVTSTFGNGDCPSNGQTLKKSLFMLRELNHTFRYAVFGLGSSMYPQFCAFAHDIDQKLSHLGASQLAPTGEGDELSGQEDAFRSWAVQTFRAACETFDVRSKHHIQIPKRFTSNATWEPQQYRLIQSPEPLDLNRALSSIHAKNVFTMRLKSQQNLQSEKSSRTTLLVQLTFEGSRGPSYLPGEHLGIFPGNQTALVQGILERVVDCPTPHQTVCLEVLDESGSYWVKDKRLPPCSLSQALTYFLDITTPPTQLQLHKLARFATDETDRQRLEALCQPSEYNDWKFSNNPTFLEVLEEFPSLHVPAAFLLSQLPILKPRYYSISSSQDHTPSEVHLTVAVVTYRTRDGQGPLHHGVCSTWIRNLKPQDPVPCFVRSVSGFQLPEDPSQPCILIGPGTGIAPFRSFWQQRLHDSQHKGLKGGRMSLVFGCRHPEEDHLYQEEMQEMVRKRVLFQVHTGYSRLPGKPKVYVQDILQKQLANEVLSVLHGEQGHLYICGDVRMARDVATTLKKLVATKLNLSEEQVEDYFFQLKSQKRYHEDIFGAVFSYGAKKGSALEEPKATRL

Estrogen receptor beta = Estrogen receptor beta (Homo sapiens, UniProt Q92731); conditions: sf9
Sequence of Estrogen receptor beta (Q92731 whole entry): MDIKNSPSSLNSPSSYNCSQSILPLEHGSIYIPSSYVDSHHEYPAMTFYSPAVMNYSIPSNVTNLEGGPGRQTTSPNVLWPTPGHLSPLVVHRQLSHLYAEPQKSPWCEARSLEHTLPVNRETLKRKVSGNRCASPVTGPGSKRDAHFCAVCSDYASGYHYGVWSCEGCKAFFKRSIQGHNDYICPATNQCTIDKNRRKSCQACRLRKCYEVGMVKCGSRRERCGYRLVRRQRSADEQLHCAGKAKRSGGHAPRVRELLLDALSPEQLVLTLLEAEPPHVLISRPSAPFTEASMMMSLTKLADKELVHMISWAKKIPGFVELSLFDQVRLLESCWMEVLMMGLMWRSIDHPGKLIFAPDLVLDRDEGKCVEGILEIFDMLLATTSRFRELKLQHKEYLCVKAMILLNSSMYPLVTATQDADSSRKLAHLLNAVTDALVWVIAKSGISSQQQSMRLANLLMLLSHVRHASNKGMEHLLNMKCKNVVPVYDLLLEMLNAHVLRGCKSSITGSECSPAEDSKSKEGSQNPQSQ

[3] = target: Vascular endothelial growth factor receptor 1 (Homo sapiens, UniProt P17948); experiment: biochemical; type: cell-based, HUVEC; conditions: huvec
Sequence of Vascular endothelial growth factor receptor 1 (P17948 whole entry): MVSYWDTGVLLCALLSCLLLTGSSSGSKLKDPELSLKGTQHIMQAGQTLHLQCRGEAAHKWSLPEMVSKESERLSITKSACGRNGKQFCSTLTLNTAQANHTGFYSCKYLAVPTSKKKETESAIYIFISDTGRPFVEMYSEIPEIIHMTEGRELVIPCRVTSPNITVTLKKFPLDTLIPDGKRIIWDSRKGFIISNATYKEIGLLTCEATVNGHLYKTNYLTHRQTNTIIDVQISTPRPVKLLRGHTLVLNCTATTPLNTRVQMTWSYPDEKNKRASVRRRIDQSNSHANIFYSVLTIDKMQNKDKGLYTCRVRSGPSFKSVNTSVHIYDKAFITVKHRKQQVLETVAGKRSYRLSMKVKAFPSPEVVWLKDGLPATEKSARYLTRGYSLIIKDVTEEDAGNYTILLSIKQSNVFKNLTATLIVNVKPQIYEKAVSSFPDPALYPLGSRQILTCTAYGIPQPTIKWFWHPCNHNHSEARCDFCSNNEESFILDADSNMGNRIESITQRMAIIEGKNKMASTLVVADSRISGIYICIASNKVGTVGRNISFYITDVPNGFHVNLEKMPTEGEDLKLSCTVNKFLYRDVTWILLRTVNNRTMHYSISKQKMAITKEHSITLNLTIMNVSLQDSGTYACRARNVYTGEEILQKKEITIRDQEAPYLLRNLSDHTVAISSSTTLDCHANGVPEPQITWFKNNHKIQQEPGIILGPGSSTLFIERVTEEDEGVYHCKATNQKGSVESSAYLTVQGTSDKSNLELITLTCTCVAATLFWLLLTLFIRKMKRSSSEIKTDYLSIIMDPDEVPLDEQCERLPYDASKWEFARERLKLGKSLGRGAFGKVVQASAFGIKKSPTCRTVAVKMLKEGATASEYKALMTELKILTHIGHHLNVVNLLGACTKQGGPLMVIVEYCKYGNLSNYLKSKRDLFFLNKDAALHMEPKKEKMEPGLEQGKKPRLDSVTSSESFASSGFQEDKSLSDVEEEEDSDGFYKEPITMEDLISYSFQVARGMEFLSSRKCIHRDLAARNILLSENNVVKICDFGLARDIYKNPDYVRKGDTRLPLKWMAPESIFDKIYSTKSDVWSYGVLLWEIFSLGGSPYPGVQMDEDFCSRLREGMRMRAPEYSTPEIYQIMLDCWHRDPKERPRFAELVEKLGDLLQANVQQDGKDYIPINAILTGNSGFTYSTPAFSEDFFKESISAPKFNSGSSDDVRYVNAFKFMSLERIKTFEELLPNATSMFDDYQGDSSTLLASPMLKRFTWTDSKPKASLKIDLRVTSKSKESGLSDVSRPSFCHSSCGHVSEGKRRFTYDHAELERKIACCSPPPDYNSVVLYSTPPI

[4] = target: C-C chemokine receptor type 2 (Homo sapiens, UniProt P41597); type: cell membranes, CHO-K1, Membrane
Sequence of C-C chemokine receptor type 2 (P41597 whole entry): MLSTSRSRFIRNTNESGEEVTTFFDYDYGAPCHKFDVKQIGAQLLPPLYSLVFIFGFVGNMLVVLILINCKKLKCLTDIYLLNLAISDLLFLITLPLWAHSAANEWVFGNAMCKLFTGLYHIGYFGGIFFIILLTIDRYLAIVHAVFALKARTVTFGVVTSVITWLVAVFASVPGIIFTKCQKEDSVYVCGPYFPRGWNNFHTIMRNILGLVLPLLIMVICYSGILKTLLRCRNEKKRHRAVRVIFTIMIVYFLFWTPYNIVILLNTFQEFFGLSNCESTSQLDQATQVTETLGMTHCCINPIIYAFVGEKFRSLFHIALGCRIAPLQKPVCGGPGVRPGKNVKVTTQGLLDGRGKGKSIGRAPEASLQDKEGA
Note: in other assays of this panel Not Active means under 50% inhibition at 10 µM.

SMILES	IC50 (Leukotriene C4 synthase)	IC50 (Glucocorticoid receptor)	IC50 [1]	Ki [1]	IC50 (Neutrophil elastase)	IC50 [2]	IC50 (Estrogen receptor beta)	IC50 [3]	IC50 ([4]; cho-k1)	IC50 ([4]; read-out: IC50) [µM]	Ki ([4]; read-out: Ki) [µM]
C=C1/C(=C\C=C2/CCC[C@]3(C)[C@@H]([C@H](C)CCCC(C)C)CC[C@@H]23)C[C@@H](O)C[C@@H]1O [ALFACALCIDOL]	Not Active	Not Active	Not Active	Not Active	Not Active	Not Active	Not Active	Not Active	Not Active		
CCCCCC[C@H]1C(=O)O[C@H](C)[C@H](NC(=O)c2cccc(NC=O)c2O)C(=O)O[C@@H](C)[C@@H]1OC(=O)CC(C)C [ANTIMYCIN A]	Not Active	Not Active	Not Active	Not Active	Not Active	Not Active	Not Active	Not Active	Not Active		
C[C@@H]1CC[C@H]2[C@@H](C)C(=O)O[C@@H]3O[C@@]4(C)CC[C@@H]1[C@]32OO4 [ARTEMISININ]	Not Active	Not Active	Not Active	Not Active	Not Active	Not Active	Not Active	Not Active	Not Active		
CO[C@H]1[C@@H](O)[C@H](N)[C@@H](O[C@H]2O[C@H]([C@H](C)N)CC[C@H]2N)[C@H](O)[C@@H]1N(C)C(=O)CN [ASTROMICIN]	Not Active	Not Active	Not Active	Not Active	Not Active	Not Active	Not Active	Not Active	Not Active		
CC(C)(C)c1ccc(S(=O)(=O)/C=C/C#N)cc1 [BAY-11-7085]	Not Active	Not Active	Not Active	Not Active	Not Active	Not Active	Not Active	Not Active		4.18	1.61
CCc1oc2ccccc2c1C(=O)c1cc(Br)c(O)c(Br)c1 [BENZBROMARONE]	Not Active	Not Active	Not Active	Not Active	Not Active	Not Active	Not Active	Not Active	Not Active		
O=C(/C=C/c1ccc(O)c(O)c1)OCCc1ccccc1 [CAFFEIC ACID PHENETHYL ESTER]	Not Active	Not Active	Not Active	Not Active	Not Active	Not Active	Not Active	Not Active	Not Active		
COc1cc(CNC(=O)CCCC/C=C/C(C)C)ccc1O [CAPSAICIN]	Not Active	Not Active	Not Active	Not Active	Not Active	Not Active	Not Active	Not Active	Not Active		
CCOC(=O)n1ccn(C)c1=S [CARBIMAZOLE]	Not Active	Not Active	Not Active	Not Active	Not Active	Not Active	Not Active	Not Active	Not Active		
Oc1ccccc1O [CATECHOL]	Not Active	Not Active	Not Active	Not Active	Not Active	Not Active	Not Active	Not Active	Not Active		
CO[C@@]1(NC(=O)CSCC#N)C(=O)N2C(C(=O)O)=C(CSc3nnnn3C)CS[C@@H]21 [CEFMETAZOLE]	Not Active	Not Active	Not Active	Not Active	Not Active	Not Active	Not Active	Not Active	Not Active		
CN(C(=O)CCCOc1ccc2[nH]c(=O)ccc2c1)C1CCCCC1 [CILOSTAMIDE]	Not Active	Not Active	Not Active	Not Active	Not Active	Not Active	Not Active	Not Active	Not Active		
CC(C)(Oc1ccc(C2CC2(Cl)Cl)cc1)C(=O)O (stereo not drawn) [CIPROFIBRATE]	Not Active	Not Active	Not Active	Not Active	Not Active	Not Active	Not Active	Not Active	Not Active		
O=P1(N(CCCl)CCCl)NCCCO1 (stereo not drawn) [CYCLOPHOSPHAMIDE ANHYDROUS]	Not Active	Not Active	Not Active	Not Active	Not Active	Not Active	Not Active	Not Active	Not Active		
Nc1nc(N)nc(NC2CC2)n1 [CYROMAZINE]	Not Active	Not Active	Not Active	Not Active	Not Active	Not Active	Not Active	Not Active	Not Active		
CN1C[C@H](C(=O)N[C@]2(C)O[C@@]3(O)[C@@H]4CCCN4C(=O)[C@H](Cc4ccccc4)N3C2=O)C[C@@H]2c3cccc4[nH]cc(c34)C[C@H]21 [DIHYDROERGOTAMINE]	Not Active	Not Active	Not Active	Not Active	Not Active	Not Active	Not Active	Not Active	Not Active		
Cc1c(N(C)CS(=O)(=O)[O-])c(=O)n(-c2ccccc2)n1C.[Na+] [DIPYRONE SODIUM]	Not Active	Not Active	Not Active	Not Active	Not Active	Not Active	Not Active	Not Active	Not Active		
CC(CCc1ccc(O)cc1)NCCc1ccc(O)c(O)c1 (stereo not drawn) [DOBUTAMINE]	Not Active	Not Active	Not Active	Not Active	Not Active	Not Active	Not Active	Not Active	Not Active		
